In BindingDB's records for patent US10626103 (Celgene Quanticel Research, 2020) one finds IC50 data, which are given here for 1 compound.

In this assay the target is Lysine-specific histone demethylase 1A (Homo sapiens, UniProt O60341). The assay is described as follows: In Vitro Enzyme Inhibition Assay - LSD-1. How it is done: The enzymatic assay of LSD1 activity is based on Time Resolved-Fluorescence Resonance Energy Transfer (TR-FRET) detection. […] Plates were read by EnVision Multilabel Reader in TR-FRET mode (excitation at 320 nm, emission at 615 nm and 665 nm) after 1 hour incubation at room temperature.

Regarding `COc1ccc(-c2c(-c3ccc(C#N)c(F)c3)cc(C(=O)N3CCC[C@@H](N)C3)n2CCCC(=O)O)cc1` [US10626103, Example 41], the IC50 (usually the concentration that gives 50% inhibition) was below 100 nM.
